In article PMC10428001 (Cancer research, 2022):
Where “and” joins values, the source holds several entries; their conditions need not be identical. Equal entries are not always repeated. Where two headings read alike, the source gives them in different places.

Tests used:
[1] = test system: Ba/F3 cells WT EGFR (+ rhEGF); experiment: Ba/F3 cell viability; format: cell-based; settings: read-out: IC50 (average ± SD)
[2] = test system: Ba/F3 cells HER2 A775_G776insYVMA; experiment: Ba/F3 cell viability; format: cell-based; settings: read-out: IC50 (average ± SD)
[3] = test system: Ba/F3 cells HER2 P780_Y781insGSP; experiment: Ba/F3 cell viability; format: cell-based; settings: read-out: IC50 (average ± SD)
[4] = test system: Ba/F3 cells HER2 G776delinsVC; experiment: Ba/F3 cell viability; format: cell-based; settings: read-out: IC50 (average ± SD)
[5] = test system: Ba/F3 cells HER2 M774delinsWLV; experiment: Ba/F3 cell viability; format: cell-based; settings: read-out: IC50 (average ± SD)
Ba/F3 cells HER2 S310F = experiment: Ba/F3 cell viability; format: cell-based; settings: read-out: IC50 (average ± SD)
Ba/F3 cells HER2 L755S = experiment: Ba/F3 cell viability; format: cell-based; settings: read-out: IC50 (average ± SD)
Ba/F3 cells HER2 V777L = experiment: Ba/F3 cell viability; format: cell-based; settings: read-out: IC50 (average ± SD)
Ba/F3 cells HER2 V862I = experiment: Ba/F3 cell viability; format: cell-based; settings: read-out: IC50 (average ± SD)
[6] = test system: Ba/F3 cells HER2 755_757LREdelinsRP; experiment: Ba/F3 cell viability; format: cell-based; settings: read-out: IC50 (average ± SD)
[7] = test system: Ba/F3 cells HER2 amplification; experiment: Ba/F3 cell viability; format: cell-based; settings: read-out: IC50 (average ± SD)
MCF7 = experiment: Cancer cell viability; format: cell-based, human; settings: read-out: IC50 (average ± SD)
H1781 = experiment: Cancer cell viability; format: cell-based, human; settings: read-out: IC50 (average ± SD)
H1819 = experiment: Cancer cell viability; format: cell-based; settings: Homo sapiens, NCI-H1819, 72 h, read-out: IC50 (average ± SD)
Calu-3 [8] = experiment: Cancer cell viability; format: cell-based; settings: Homo sapiens, Calu-3, 72 h, read-out: IC50 (average ± SD)
DFCI 429 = experiment: Patient-derived cancer cell viability; format: cell-based, human; settings: read-out: IC50 (average ± SD)
BT-474 = experiment: Cancer cell viability; format: cell-based, human; settings: read-out: IC50 (average ± SD)
SKBR3 = experiment: Cancer cell viability; format: cell-based, human; settings: read-out: IC50 (average ± SD)
NCI-N87 = experiment: Cancer cell viability; format: cell-based, human; settings: read-out: IC50 (average ± SD)
HER2 mutant lung cancer = settings: cited from earlier work
[9] = test system: WT EGFR vs all HER2 mutants Ba/F3 cells; experiment: Selectivity index from Ba/F3 IC50 ratios; format: cell-based; settings: average over HER2 mutants
Calu-3 tumors [10] = experiment: Calu-3 xenograft efficacy; format: in vivo; settings: Calu-3 in NCr nude mice, oral, 39 days; JBJ-08-178-01 at 50 mg/kg BID
[11] = test system: HER YVMA Ba/F3 cells containing a concurrent C805S mutation; experiment: Ba/F3 cell viability, concurrent C805S mutation; format: cell-based; settings: HER YVMA Ba/F3 cells with concurrent C805S mutation
A-431 = experiment: Cancer cell viability; format: cell-based, human; settings: read-out: IC50 (average ± SD); A-431, epidermoid, EGFR amp, 72 h
DFCI 315 [12] = experiment: Patient-derived tumor spheroid viability; format: cell-based, human; settings: read-out: IC50 (average ± SD); DFCI 315, NSCLC, HER2 ins, 6 days
[13] = Pharmacokinetic properties in mice; format: in vivo
Calu-3 tumors [14] = experiment: TUNEL assay in Calu-3 tumors; format: in vivo, NCr nude mice; settings: 50 mg/kg BID, 3 days dosing
Calu-3 [15] = experiment: Caspase-3/7 activity, live-cell imaging; format: cell-based, human; settings: Calu-3, live-cell imaging, 3 days
DFCI 315 [16] = experiment: AO/PI live/dead staining of tumor spheroids; format: cell-based, human; settings: DFCI 315 tumor spheroids, 5 days
WT HER2 = WT HER2 (Homo sapiens, UniProt P04626); settings: purified kinase 5 nmol/L, 100 μmol/L ATP
WT HER2, sequence (P04626 720-987 limits assumed): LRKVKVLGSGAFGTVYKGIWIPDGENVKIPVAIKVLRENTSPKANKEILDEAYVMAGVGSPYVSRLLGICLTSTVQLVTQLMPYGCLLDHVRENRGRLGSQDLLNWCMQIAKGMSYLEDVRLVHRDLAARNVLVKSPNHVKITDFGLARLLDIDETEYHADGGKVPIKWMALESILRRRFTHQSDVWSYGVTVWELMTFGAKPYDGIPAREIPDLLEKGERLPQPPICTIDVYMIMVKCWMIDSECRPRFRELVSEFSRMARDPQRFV

[17] = test system: Ba/F3 cells harboring various HER2 exon 20 insertions or amplification; settings: read-out: IC50 across all exon 20 mutants or amplification, cell growth
HER2 [18] = molecular target: T1, HER2 (Homo sapiens, UniProt P04626); settings: Calu-3 cells, in the presence of cycloheximide
T1 sequence (P04626 23-1255): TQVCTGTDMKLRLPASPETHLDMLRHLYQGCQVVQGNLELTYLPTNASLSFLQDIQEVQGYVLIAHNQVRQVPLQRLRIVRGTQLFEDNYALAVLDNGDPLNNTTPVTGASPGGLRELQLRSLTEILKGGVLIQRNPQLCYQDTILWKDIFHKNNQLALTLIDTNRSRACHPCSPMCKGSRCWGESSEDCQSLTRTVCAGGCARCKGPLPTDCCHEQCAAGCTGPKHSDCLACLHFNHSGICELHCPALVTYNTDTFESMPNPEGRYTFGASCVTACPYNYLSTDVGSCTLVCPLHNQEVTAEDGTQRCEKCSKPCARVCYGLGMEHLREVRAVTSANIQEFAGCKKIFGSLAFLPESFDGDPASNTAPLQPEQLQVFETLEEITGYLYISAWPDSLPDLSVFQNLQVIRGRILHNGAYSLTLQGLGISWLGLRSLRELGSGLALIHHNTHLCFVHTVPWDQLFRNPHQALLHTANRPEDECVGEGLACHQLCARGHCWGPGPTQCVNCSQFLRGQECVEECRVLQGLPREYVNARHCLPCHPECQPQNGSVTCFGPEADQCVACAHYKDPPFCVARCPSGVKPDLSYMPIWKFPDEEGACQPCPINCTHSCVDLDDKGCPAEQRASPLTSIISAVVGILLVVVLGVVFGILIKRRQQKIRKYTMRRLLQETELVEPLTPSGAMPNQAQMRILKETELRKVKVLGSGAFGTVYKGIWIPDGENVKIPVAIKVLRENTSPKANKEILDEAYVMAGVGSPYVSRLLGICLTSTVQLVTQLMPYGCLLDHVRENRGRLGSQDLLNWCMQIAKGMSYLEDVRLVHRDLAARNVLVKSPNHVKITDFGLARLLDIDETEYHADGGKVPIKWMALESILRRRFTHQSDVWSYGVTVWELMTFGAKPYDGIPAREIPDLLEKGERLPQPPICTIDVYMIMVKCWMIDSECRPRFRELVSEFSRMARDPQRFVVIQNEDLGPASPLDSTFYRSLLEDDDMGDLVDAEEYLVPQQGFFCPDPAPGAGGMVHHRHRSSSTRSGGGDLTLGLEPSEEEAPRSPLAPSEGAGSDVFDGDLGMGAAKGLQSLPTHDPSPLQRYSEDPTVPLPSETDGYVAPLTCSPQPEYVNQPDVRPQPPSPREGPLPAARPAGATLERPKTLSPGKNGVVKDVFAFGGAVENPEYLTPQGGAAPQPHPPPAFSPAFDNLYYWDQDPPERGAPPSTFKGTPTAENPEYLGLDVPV

HER2 [19] = molecular target: T1, HER2; settings: Calu-3 cells

## CCOc1cc2ncc(C#N)c(Nc3ccc(OCc4ccccn4)c(Cl)c3)c2cc1NC(=O)/C=C/CN(C)C [neratinib]
[1]; Mus musculus, BaF3, 72 h
  IC50: 13.5 ± 6.52 nM
[2]; Mus musculus, BaF3, 72 h
  IC50: 5.78 ± 2.09 nM
[3]; Mus musculus, BaF3, 72 h
  IC50: 4.96 ± 2.31 nM
[4]; Mus musculus, BaF3, 72 h
  IC50: 7.4 ± 4.64 nM
[5]; Mus musculus, BaF3, 72 h
  IC50: 16 ± 11.7 nM
Ba/F3 cells HER2 S310F; Mus musculus, BaF3, 72 h
  IC50: 49.1 ± 64 nM
Ba/F3 cells HER2 L755S; Mus musculus, BaF3, 72 h
  IC50: 112 ± 69.7 nM
Ba/F3 cells HER2 V777L; Mus musculus, BaF3, 72 h
  IC50: 2.66 ± 0.48 nM
Ba/F3 cells HER2 V862I; Mus musculus, BaF3, 72 h
  IC50: 8.64 ± 3.81 nM
[6]; Mus musculus, BaF3, 72 h
  IC50: 5.41 ± 4.54 nM
[7]; Mus musculus, BaF3, 72 h
  IC50: 5.64 ± 3.72 nM
MCF7; Homo sapiens, MCF7, 72 h
  IC50: 1280 nM
H1781; Homo sapiens, NCI-H1781, 72 h
  IC50: 296 ± 331 nM
H1819
  IC50: 50.8 ± 14.1 nM
Calu-3 [8]
  IC50: 57.9 ± 39.6 nM
DFCI 429; Homo sapiens, 72 h
  IC50: 51.9 ± 45.8 nM
BT-474; Homo sapiens, BT-474, 72 h
  IC50: 48 ± 10 nM
SKBR3; Homo sapiens, SK-BR-3, 72 h
  IC50: 68.4 ± 65.5 nM
NCI-N87; Homo sapiens, NCI-N87, 72 h
  IC50: 1.1 ± 0.1 nM
HER2 mutant lung cancer; patients with HER2 mutant NSCLC, clinical trial ref 35
  patients with objective response: one out of 26

## Cc1cc(Nc2ncnc3ccc(NC4=NC(C)(C)CO4)cc23)ccc1Oc1ccn2ncnc2c1 [tucatinib]
[1]; Mus musculus, BaF3, 72 h
  IC50: 5180 ± 2520 nM
[2]; Mus musculus, BaF3, 72 h
  IC50: 269 ± 88.1 nM
[3]; Mus musculus, BaF3, 72 h
  IC50: 131 ± 37.3 nM
[4]; Mus musculus, BaF3, 72 h
  IC50: 97.8 ± 43.3 nM
[5]; Mus musculus, BaF3, 72 h
  IC50: 683 ± 288 nM
Ba/F3 cells HER2 S310F; Mus musculus, BaF3, 72 h
  IC50: 371 ± 168 nM
Ba/F3 cells HER2 L755S; Mus musculus, BaF3, 72 h
  IC50: 2090 ± 981 nM
Ba/F3 cells HER2 V777L; Mus musculus, BaF3, 72 h
  IC50: 7.2 ± 0.57 nM
Ba/F3 cells HER2 V862I; Mus musculus, BaF3, 72 h
  IC50: 1940 ± 1110 nM
[6]; Mus musculus, BaF3, 72 h
  IC50: 102 ± 23.6 nM
[7]; Mus musculus, BaF3, 72 h
  IC50: 126 ± 81.8 nM
[9]
  Selectivity index (IC50 ratio = WT EGFR ÷ all HER2 mutants): 8.91
MCF7; Homo sapiens, MCF7, 72 h
  IC50: 11300 nM
H1781; Homo sapiens, NCI-H1781, 72 h
  IC50: 3910 nM
H1819
  IC50: 521 ± 551 nM
Calu-3 [8]
  IC50: 1900 nM
DFCI 429; Homo sapiens, 72 h
  IC50: 2790 nM
BT-474; Homo sapiens, BT-474, 72 h
  IC50: 1730 nM
SKBR3; Homo sapiens, SK-BR-3, 72 h
  IC50: 840 ± 918 nM
NCI-N87; Homo sapiens, NCI-N87, 72 h
  IC50: 16.2 ± 2.4 nM
Calu-3 tumors [10]
  tumor growth: less efficacious than other covalent inhibitors

## CCOc1cc2ncc(C#N)c(Nc3ccc(Oc4ccn5ncnc5c4)c(C)c3)c2cc1NC(=O)/C=C/CN(C)C [JBJ-08-178-01]
[1]; Ba/F3 WT EGFR (+ rhEGF 10 ng/mL), 3 days
  IC50: 368 ± 103 nM
[2]; Ba/F3 HER2 A775_G776insYVMA, 3 days
  IC50: 13.6 ± 2.24 nM
[3]; Ba/F3 HER2 P780_Y781insGSP, 3 days
  IC50: 7.38 ± 2.66 nM
[4]; Ba/F3 HER2 G776delinsVC, 3 days
  IC50: 6.01 ± 2.94 nM
[5]; Ba/F3 HER2 M774delinsWLV, 3 days
  IC50: 21 ± 12 nM
Ba/F3 cells HER2 S310F; Ba/F3 HER2 S310F, 3 days
  IC50: 41.5 ± 13.4 nM
Ba/F3 cells HER2 L755S; Ba/F3 HER2 L755S, 3 days
  IC50: 140 ± 45.3 nM
Ba/F3 cells HER2 V777L; Ba/F3 HER2 V777L, 3 days
  IC50: 2.71 ± 0.41 nM
Ba/F3 cells HER2 V862I; Ba/F3 HER2 V862I, 3 days
  IC50: 284 ± 118 nM
[6]; Ba/F3 HER2 755_757LREdelinsRP, 3 days
  IC50: 7.24 ± 2.28 nM
[7]; Ba/F3 HER2 amplification, 3 days
  IC50: 15.3 ± 11.4 nM
[9]
  Selectivity index (IC50 ratio = WT EGFR ÷ all HER2 mutants): 6.8 and 6.83
[11]
  growth inhibition: did not inhibit the growth
MCF7; MCF7, breast cancer, no ERBB mutation, 72 h
  IC50: 967 ± 429 nM
A-431
  IC50: 378 ± 77.1 nM
H1781; H1781, NSCLC, HER2 ins, 72 h
  IC50: 151 ± 52.7 nM
DFCI 429; DFCI 429, NSCLC, HER2 amp, 3 days
  IC50: 252 ± 179 nM
DFCI 315 [12]
  IC50: 456 ± 117 nM
BT-474; BT-474, breast cancer, HER2 amp, 72 h
  IC50: 43.7 ± 11.1 nM
SKBR3; SKBR3, breast cancer, HER2 amp, 72 h
  IC50: 79.4 ± 56.5 nM
NCI-N87; NCI-N87, HER2 amp, 72 h
  IC50: 1.2 nM
[13]; IV (2 mg/kg)
  AUCINF_obs: 323,166 min*ng/mL
  AUClast: 317,601 min*ng/mL
  CI_obs: 6.26 mL/min/kg
  Cmax: 5.68 µM
  MRTINF_obs: 1.42 h
  T1/2: 1.41 h
  Tmax: 0.36 h
  Vss_obs: 0.5 L/kg
[13]; PO (10 mg/kg)
  AUCINF_obs: 243,219 min*ng/mL
  AUClast: 166,787 min*ng/mL
  CI_obs: 48.87 mL/min/kg
  Cmax: 1.12 µM
  F: 10%
  T1/2: 3.65 h
  Tmax: 2.33 h
Calu-3 tumors [10]
  tumor growth: comparable tumor regression with neratinib
Calu-3 tumors [14]
  cell apoptosis (TUNEL): significantly increased cell apoptosis compared with vehicle
Calu-3 [15]
  apoptosis (caspase-3/7): rapid and greater degree of apoptosis compared with cells treated with poziotinib, neratinib, or tucatinib
DFCI 315 [16]
  PI-positive dead cells: significantly increased PI-positive dead cells
WT HER2
  inhibition of WT HER2 in biochemical inhibition assays: potently inhibited WT HER2
[17]
  IC50: < 50 nM
HER2 [18]
  protein stability of HER2: decreased protein stability of HER2 compared with vehicle
HER2 [19]
  HER2 endocytosis (pHrodo fluorescence signal): dramatic increase of fluorescence signal in the cytoplasm

## COc1cc2ncnc(Nc3ccc(F)c(Cl)c3)c2cc1NC(=O)/C=C/CN1CCCCC1 [dacomitinib]
HER2 mutant lung cancer; phase II trial, patients with lung cancer harboring HER2 exon 20 mutations ref 34
  overall response rate: 12%
